Laboratory results from PubChem BioAssay AID248 (DTP/NCI, 2004).
“And” between values parts separate entries of the source, which are not always exact repeats. Equal entries are not always repeated. Toxic doses and inconclusive results are not listed. No stated cut-off is given here; in the data, active means T/C of 150% or more; inactive means T/C below 125%.

Tested on: L1210 leukemia ip in BDF1 mice, survival T/C
Assay: NCI In Vivo Anticancer Drug Screen. Data for tumor model L1210 Leukemia (intraperitoneal) in B6D2F1 (BDF1) mice
Conditions: endpoint: mean survival time, higher = longer survival
How it was run: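 Ratio derived from survival: compound-dosed mice over vehicle-dosed mice, all bearing a transplantable tumor.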

[1] = dose: 50.0 mg/kg/injection, schedule: Q01DX009 (ip), vehicle: saline
[2] = dose: 100.0 mg/kg/injection, schedule: Q01DX009 (ip), vehicle: saline
[3] = dose: 100.0 mg/kg/injection, schedule: Q04DX003 (ip), vehicle: saline with Tween-80
[4] = dose: 200.0 mg/kg/injection, schedule: Q04DX003 (ip), vehicle: saline with Tween-80
[5] = dose: 400.0 mg/kg/injection, schedule: Q04DX003 (ip), vehicle: saline with Tween-80
[6] = dose: 100.0 mg/kg/injection, schedule: Q01DX001 (ip), vehicle: carboxymethylcellulose (CMC)
[7] = dose: 200.0 mg/kg/injection, schedule: Q01DX001 (ip), vehicle: carboxymethylcellulose (CMC)
[8] = dose: 400.0 mg/kg/injection, schedule: Q01DX001 (ip), vehicle: carboxymethylcellulose (CMC)

Measured: T/C

O=C1C=CC(=O)O1 (tested in a mixture with another compound)
inactive: dose: 0.22 mg/kg/injection, schedule: Q01DX009 (ip), vehicle: acetone 96 % of control | dose: 0.44 mg/kg/injection, schedule: Q01DX009 (ip), vehicle: acetone 105 % of control | dose: 0.78 mg/kg/injection, schedule: Q04DX003 (ip), vehicle: other 93 % of control | dose: 0.88 mg/kg/injection, schedule: Q01DX009 (ip), vehicle: acetone 92 % of control | dose: 1.56 mg/kg/injection, schedule: Q04DX003 (ip), vehicle: other 96 % of control | dose: 3.12 mg/kg/injection, schedule: Q04DX003 (ip), vehicle: other 104 % of control | dose: 4.6 mg/kg/injection, schedule: Q04DX003 (ip), vehicle: Klucel (hydroxypropylcellulose) (HPC) 96 % of control | dose: 7.1 mg/kg/injection, schedule: Q04DX003 (ip), vehicle: Klucel (hydroxypropylcellulose) (HPC) 96 % of control | dose: 15.0 mg/kg/injection, schedule: Q01DX001 (ip), vehicle: carboxymethylcellulose (CMC) 112 % of control | dose: 22.0 mg/kg/injection, schedule: Q01DX015 (ip), vehicle: carboxymethylcellulose (CMC) 101 % of control and 119 % of control | dose: 30.0 mg/kg/injection, schedule: Q01DX001 (ip), vehicle: carboxymethylcellulose (CMC) 116 % of control | dose: 31.25 mg/kg/injection, schedule: Q#A X Z (ip), vehicle: carboxymethylcellulose (CMC) 96 % of control and 93 % of control and 108 % of control | dose: 33.0 mg/kg/injection, schedule: Q01DX015 (ip), vehicle: carboxymethylcellulose (CMC) 101 % of control and 103 % of control | [1] 107 % of control [middle of 5 runs] | dose: 50.0 mg/kg/injection, schedule: Q01DX015 (ip), vehicle: carboxymethylcellulose (CMC) 108 % of control | dose: 62.5 mg/kg/injection, schedule: Q#A X Z (ip), vehicle: carboxymethylcellulose (CMC) 96 % of control and 95 % of control and 106 % of control | dose: 75.0 mg/kg/injection, schedule: Q01DX001 (ip), vehicle: carboxymethylcellulose (CMC) 119 % of control | dose: 75.0 mg/kg/injection, schedule: Q01DX001 (ip), vehicle: water 104 % of control | dose: 75.0 mg/kg/injection, schedule: Q01DX015 (ip), vehicle: carboxymethylcellulose (CMC) 98 % of control | dose: 100.0 mg/kg/injection, schedule: Q01DX001 (ip), vehicle: saline 115 % of control | [2] 112 % of control [middle of 7 runs] | dose: 100.0 mg/kg/injection, schedule: Q04DX003 (ip), vehicle: saline 107 % of control and 112 % of control and 109 % of control | dose: 125.0 mg/kg/injection, schedule: Q#A X Z (ip), vehicle: carboxymethylcellulose (CMC) 86 % of control and 102 % of control and 106 % of control | dose: 125.0 mg/kg/injection, schedule: Q#A X Z (oral), vehicle: carboxymethylcellulose (CMC) 106 % of control and 100 % of control | dose: 150.0 mg/kg/injection, schedule: Q01DX001 (ip), vehicle: water 106 % of control | dose: 177.0 mg/kg/injection, schedule: Q01DX001 (ip), vehicle: saline 98 % of control | dose: 200.0 mg/kg/injection, schedule: Q01DX001 (ip), vehicle: saline 107 % of control | dose: 200.0 mg/kg/injection, schedule: Q04DX003 (ip), vehicle: saline 106 % of control [middle of 4 runs] | dose: 250.0 mg/kg/injection, schedule: Q#A X Z (ip), vehicle: carboxymethylcellulose (CMC) 86 % of control and 108 % of control and 90 % of control | dose: 250.0 mg/kg/injection, schedule: Q#A X Z (oral), vehicle: carboxymethylcellulose (CMC) 106 % of control and 100 % of control and 103 % of control | dose: 270.0 mg/kg/injection, schedule: Q01DX001 (ip), vehicle: saline 105 % of control | dose: 300.0 mg/kg/injection, schedule: Q01DX001 (ip), vehicle: water 97 % of control | dose: 400.0 mg/kg/injection, schedule: Q01DX001 (ip), vehicle: saline 112 % of control and 100 % of control | dose: 400.0 mg/kg/injection, schedule: Q01DX009 (ip), vehicle: saline 113 % of control | dose: 500.0 mg/kg/injection, schedule: Q#A X Z (oral), vehicle: carboxymethylcellulose (CMC) 100 % of control and 102 % of control | dose: 600.0 mg/kg/injection, schedule: Q01DX001 (ip), vehicle: saline 94 % of control | dose: 1000.0 mg/kg/injection, schedule: Q#A X Z (oral), vehicle: carboxymethylcellulose (CMC) 100 % of control and 106 % of control and 102 % of control

O=C(/C=C/c1ccccc1)N(Cc1ccccc1)c1ccccc1
inactive: dose: 100.0 mg/kg/injection, schedule: Q01DX009 (ip), vehicle: Klucel (hydroxypropylcellulose) (HPC) 97 % of control | dose: 200.0 mg/kg/injection, schedule: Q01DX009 (ip), vehicle: Klucel (hydroxypropylcellulose) (HPC) 101 % of control | dose: 400.0 mg/kg/injection, schedule: Q01DX009 (ip), vehicle: Klucel (hydroxypropylcellulose) (HPC) 103 % of control

O=C(Nc1ncccn1)c1ccc(Cl)cc1Cl
inactive: dose: 50.0 mg/kg/injection, schedule: Q04DX003 (ip), vehicle: saline with Tween-80 93 % of control | dose: 100.0 mg/kg/injection, schedule: Q01DX001 (ip), vehicle: saline with Tween-80 103 % of control | dose: 100.0 mg/kg/injection, schedule: Q01DX009 (ip), vehicle: saline with Tween-80 102 % of control | dose: 100.0 mg/kg/injection, schedule: Q04DX002 (ip), vehicle: saline with Tween-80 93 % of control and 91 % of control | [3] 94 % of control and 100 % of control | dose: 200.0 mg/kg/injection, schedule: Q01DX001 (ip), vehicle: saline with Tween-80 96 % of control | dose: 200.0 mg/kg/injection, schedule: Q01DX009 (ip), vehicle: saline with Tween-80 102 % of control | dose: 200.0 mg/kg/injection, schedule: Q04DX002 (ip), vehicle: saline with Tween-80 104 % of control | [4] 91 % of control | dose: 400.0 mg/kg/injection, schedule: Q01DX001 (ip), vehicle: saline with Tween-80 96 % of control | dose: 400.0 mg/kg/injection, schedule: Q01DX009 (ip), vehicle: saline with Tween-80 100 % of control | dose: 400.0 mg/kg/injection, schedule: Q04DX002 (ip), vehicle: saline with Tween-80 105 % of control and 107 % of control | [5] 103 % of control and 92 % of control

Cc1cccc(Cl)c1NC(=O)c1c(Cl)c(Cl)c(Cl)c(Cl)c1C(=O)O
inactive: dose: 100.0 mg/kg/injection, schedule: Q04DX002 (ip), vehicle: Klucel (hydroxypropylcellulose) (HPC) 110 % of control | dose: 200.0 mg/kg/injection, schedule: Q04DX002 (ip), vehicle: Klucel (hydroxypropylcellulose) (HPC) 104 % of control

CCOC(=O)C(=O)CC1=NC2CCCCC2N(C)C1=O (configuration not stated)
inactive: [1] 93 % of control | [2] 90 % of control | dose: 200.0 mg/kg/injection, schedule: Q01DX009 (ip), vehicle: saline 90 % of control

NC1=NC(=O)NC1(c1ccccc1)c1ccccc1
inactive: dose: 50.0 mg/kg/injection, schedule: Q01DX001 (ip), vehicle: carboxymethylcellulose (CMC) 94 % of control | [6] 100 % of control | [7] 89 % of control | [8] 116 % of control

COC(=O)/C(=C\c1ccncc1)c1cccc2ccccc12
inactive: [3] 104 % of control | [4] 100 % of control | [5] 94 % of control

Cc1nc(N)[nH]c(=O)c1/C=C\C(=O)c1ccccc1
inactive: dose: 30.0 mg/kg/injection, schedule: Q01DX Z (ip), vehicle: carboxymethylcellulose (CMC) 96 % of control | dose: 60.0 mg/kg/injection, schedule: Q01DX Z (ip), vehicle: carboxymethylcellulose (CMC) 96 % of control | [6] 95 % of control | dose: 120.0 mg/kg/injection, schedule: Q01DX Z (ip), vehicle: carboxymethylcellulose (CMC) 87 % of control | [7] 89 % of control | dose: 240.0 mg/kg/injection, schedule: Q01DX Z (ip), vehicle: carboxymethylcellulose (CMC) 90 % of control | [8] 93 % of control
